# Laboratory results from patent US20100260818A1, “STABLE MEDICATED CHEWING GUM COMPRISING CYCLODEXTRIN INCLUSION COMPLEX” (FERTIN PHARMA A/S, priority 2007, published 2010).
# Values joined by “and” are separate entries in the source; they are usually repeats but may differ in a detail not shown here. Equal entries are not always repeated.
# Legend:
# [1] = β-cyclodextrin content of filtrates of cetirizine.2HCL/β-cyclodextrin reaction mixture (HPLC, ELSD); type: physicochemical
# [2] = Suspension homogeneity (visual) and chemical stability of cetirizine and β-cyclodextrin suspension with hydroxy acids, salts, NaOH; details: for Suspension homogeneity compared to control: visual
# Method: The effect of different hydroxy acids, hydroxy acid salts and sodium hydroxide on the suspension homogeneity and also on the chemical stability of cetirizine in the suspensions was studied.
# The cetirizine and β-cyclodextrin suspensions were prepared by stirring aqueous cetirizine solution with cyclodextrin and with the additives.
# [3] = Powder sample storage stability, impurities by HPLC (Example 9); type: physicochemical; details: 34 days, 40 degrees C., 75% relative humidity; cyclodextrin and cetirizine uncomplexed in same formulation
# Method: The four samples were stored in capped 50 mL Polyethylene Duma™ containers (Superfos Pharma Pack, Denmark) at 40 degrees C. and 75% relative humidity for 34 days, and were subsequently analysed by HPLC.
# [4] = molar ratio CTZ:Additive not calculated
compound,measurement,setting,value
O=C(O)CC(O)(CC(=O)O)C(=O)O [Citric acid],BCD content in the filtrate,[1]; molar ratio CTZ:Additive 1:1,154 mg/mL
same,Suspension homogeneity compared to control,[2]; molar ratio CTZ:Additive 1:1,no significant change
"O=C([O-])C(O)C(O)C(=O)[O-].[K+].[Na+] (stereo not drawn) [K—Na-tartarate, Potassium-sodium-tartarate]",BCD content in the filtrate,[1]; molar ratio CTZ:Additive 1:5,120 mg/mL
same,Suspension homogeneity compared to control,[2]; molar ratio CTZ:Additive 1:5,better
"O=C([O-])CC(O)(CC(=O)[O-])C(=O)[O-].[Na+].[Na+].[Na+] [Na-citrate, Tri-sodium citrate]",BCD content in the filtrate,[1]; molar ratio CTZ:Additive 1:4,135 mg/mL
same,Chemical degradations affecting β-cyclodextrin and cetirizine component of the binary formulation,[2]; effective amount of additive 3-6% by weight,effectively suppressed
same,Suspension homogeneity compared to control,[2]; molar ratio CTZ:Additive 1:1,better
same,Suspension homogeneity compared to control,[2]; molar ratio CTZ:Additive 1:2,better
same,Suspension homogeneity compared to control,[2]; molar ratio CTZ:Additive 1:3,better
same,Suspension homogeneity compared to control,[2]; molar ratio CTZ:Additive 1:4,better
"[Na+].[OH-] [NaOH, Sodium hydroxide]",BCD content in the filtrate,[1]; [4],115 mg/mL and 125 mg/mL
same,Suspension homogeneity compared to control,[2]; [4],no significant change
O=C(O)C(O)C(O)C(=O)O (stereo not drawn) [Tartaric acid],BCD content in the filtrate,[1]; molar ratio CTZ:Additive 1:2,130 mg/mL
same,Suspension homogeneity compared to control,[2]; molar ratio CTZ:Additive 1:2,better
"OC[C@H]1O[C@@H]2O[C@H]3[C@H](O)[C@@H](O)[C@@H](O[C@H]4[C@H](O)[C@@H](O)[C@@H](O[C@H]5[C@H](O)[C@@H](O)[C@@H](O[C@H]6[C@H](O)[C@@H](O)[C@@H](O[C@H]7[C@H](O)[C@@H](O)[C@@H](O[C@H]8[C@H](O)[C@@H](O)[C@@H](O[C@H]1[C@H](O)[C@H]2O)O[C@@H]8CO)O[C@@H]7CO)O[C@@H]6CO)O[C@@H]5CO)O[C@@H]4CO)O[C@@H]3CO [un-complexed cyclodextrin, Beta-cyclodextrin]",Effect on the stability of cetirizine,[3],does not have any significant effect
